These results are taken from patent US4863748A, “Dietary products and uses comprising methylsulfonylmethane” (priority 1986, dated 1989).

Series [1] relates to spontaneous mouse lymphomas. Nature of the series: Spontaneous mouse lymphomas, survival (Example 37). To be noted: 3% by wt. in water; all 12 controls dead by month 4. Type of series: in vivo, laboratory mice. The procedure: Laboratory mice genetically predisposed to lymphoma development were selected for this test. Humoral immunity participation was measured as was the effect of methylsulfonylmethane on an animal's life span. One set of 12 mice were maintained as controls. The treated (T) group received identical treatment except for their water given ad lib, which contained 3% by wt. of methylsulfonylmethane in solution.
By month 4 of this test, all controls were dead, due to lymphoma development. […] These normal balb/c strain mice of group T were tested for t-lymphocyte dependent (t-d) and t-lymphocyte independent (t-i) immune responses. […] Based on these preliminary results, at high enough daily rates of ingestion, methylsulfonylmethane stimulates humoral immunity thereby providing protection to otherwise lethal spontaneous mouse lymphomas.

Series [2] in a line: Tolerance and toxicity on ingestion. It is filed as in vivo, animals. To be noted: for NOAEL: in vivo, po. The text has this: The methylsulfonylmethane is usually provided in the aninmal's normal feed rations, periodically throughout the day or on successive days, or both, e.g., for 2 to 21 days or even longer. The daily food ration appropriate for the animal being fed is supplemented with an amount of methylsulfonylmethane calculated to correspond to a predetermined amount per total body weight of the animals being fed. The exact amount of methylsulfonylmethane ingested each day is not always critical, particularly when methylsulfonylmethane administration is over an extended period of days, because the ingested methylsulfonylmethane accumulates in the body tissues and fluids, i.e., reaches an effective titer. Methylsulfonylmethane-supplemented rations providing levels of as low as 0.5-1 mg/kg animal body weight are sometimes effective and levels as high as 300 mg/kg body weight or more are well tolerated. The usual target level per individual animal is about 0.2-2.0 mg/kg body weight preferably 0.5-1.0 mg per kg body weight. Total daily supplements corresponding to up to about 1 gm/kg body weight or more, are preferably employed, depending on the degree of deficiency. Healthy animals often have methylsulfonylmethane blood levels of at least 1 ppm, and desirably, enough methylsulfonylmethane is provided to raise blood levels to above 1 ppm. The oral ingestion of amounts of methylsulfonylmethane in excess of that required to elevate blood levels is not harmful because of the extremely non-toxic nature of methylsulfonylmethane.
One can safely administer 1-2 grams/kg body wt. of methylsulfonylmethane on a daily basis (equal to 1000-2000 ppm w/w basis). One therefore builds a safely tolerated blood level of about 4000 ppm, which level is highly toxic to many infective organism yet is harmless to the host. Methylsulfonylmethane provides a unique new therapeutic approach, used alone or with concurrent, conventional therapy.

Series [3] deals with physical fatigue syndrome. Nature of the series: Post-athletic activity fatigue (Example 25). To be noted: 1-2 gm/day, preceding six months; usually 8-10 days. It is filed as in vivo, human. The text has this:
The physical fatigue syndrome following intense athletic activity in competitive sports which usually persists for 8-10 days in athletes was gone in 2-3 days in individuals who had ingested methylsulfonylmethane (from 1-2 gm/day in split dosages) for the preceding six months.

Series [4] relates to rheumatoid arthritis and other intense pain-producing disease. Nature of the series: Intravenous administration in acute intense pain-producing disease. Type of series: in vivo, human. The text has this:
In U.S. Pat. No. 4,296,130, I teach that methylsulfonylmethane is so inert and non-toxic that aqueous solutions thereof can be used as a blood diluent. In healthy humans or other animals having adequately high methylsulfonylmethane blood levels, methylsulfonylmethane is in fact "inert" in the sense the term is used in that patent. However, in acutely ill patiets, dramatic beneficial benefits are often obtained by the intravenous administration of large doses of methylsulfonylmethane. For example, rheumatoid arthritic patients suffering from a flair-up of the disease which produces intense pain or crippling swelling of the joints or both achieve prompt relief, even those patients who obtain only minimal or delayed benefits from oral ingestion of methylsulfonylmethane.
Apparently, when a patient is in an acute stage of intense pain-producing disease, such as rheumatoid arthritis, osteoporosis, degenerative disc syndrome, an autoimmune disease or metathesized carcinoma, which produces intense pain, the relief from pain from oral ingestion of methylsulfonylmethane is sometimes too subtle or takes too long for the patient to obtain reasonably prompt subjective benefits therefrom.
Therefore, in one aspect this invention relates to a method for rapidly ameliorating at least the pain associated with an intense pain-producing disease by the intravenous administration of methylsulfonylmethane in an amount effective to ameliorate the pain.
The amount of methylsulfonylmethane intravenously administered can vary substantially because of its lack of toxicity and adverse side effects. Individual doses can vary from about 0.01 to 2 gm/kg, preferably from about 0.1 to 1 gm/kg, on a body weight basis, the usual dosage range is about 0.25 to 0.75 gm/kg, preferably about 0.5 gm/kg.
When large amounts are administered, e.g., in the order of 1 g/kg of body weight or more, i.e., infusion of 5% to 10% solution of methylsulfonylmethane in water, physiological saline or 5% dextrose is preferred. The rate of administration is preferably no greater than about 1 gm/kg/hr, although infusion rates as high as 2 gm/kg/hr are tolerated by patients, except for light-headedness of the type experienced by some blood donors is experienced by some patients at this rate.
For patients suffering from a serious chronic disease, e.g., an acute stage of rheumatoid arthritis or other acute inflammatory conditions or a patient in extreme pain, administer 1 gm/kg of methylsulfonylmethane i.v. as a 14% by wt. solution in sterile 5% dextrose solution, at the rate of 1 gm/kg/hr. Within 2-4 hours, significant subjective relief from the symptoms of the disease or condition is experienced by the patient, with the relief lasting for from 7 to 21 days.

In another series the test system is Giardia lamblia. The experiment in a line: In vitro inhibition of Giardia lamblia (Example 28(b)). It is filed as cell-based. The procedure:
However, at 20 mg/ml concentration, it was strongly inhibitory and concentrations above 40 mg/ml promptly killed the organism.

For series [5], the system named is subjects in apparent good health. The experiment in a line: Maintenance of good health (Example 12). It is filed as in vivo, human. The procedure: 14 subjects of both sexes, all in apparent good health, ages 33-59, were given oral methylsulfonylmethane in amounts ranging from 250 to 500 mg daily which maintained their blood levels above 1 ppm. These individuals were continued on methylsulfonylmethane, taken as a solution in orange juice for periods of from about seven months to over one year.

The test system of the next series is lymphomas. To be noted: oral, cited from earlier work.
In the next series the test system is arthritic patients. The experiment in a line: Chemical profile of arthritic patients. It is filed as in vivo, human. The conditions noted are these: drop from 600+. The text has this:
8. Improving the chemical profile of arthritic patients, e.g., providing relief from pain and stiffness, reduced swelling and inflammation, coupled with a return of blood chemistry towards normalcy, for example, a RH titer drop from 600+to 300 or lower.

Where [6] appears, read: 1 gm/kg i.v., 14% solution in 5% dextrose, 1 gm/kg/hr (Example 34).
The mark [7] stands for this setting: 250 to 500 mg daily, seven months to over one year.

Where two headings read alike, the source gives them in different places. Some results are limits rather than exact numbers.

With `CS(C)(=O)=O` [methylsulfonylmethane], the “deaths by month 5” value in series [1] is reported as “No T group mice had died”. In series [2] (in the host's diet), the “acute and chronic toxicity” value is “remarkably low”. Further, the NOAEL in series [2] (daily basis, read-out: safely administered daily dose) lay within 1000 to 2000 mg/kg/day. For the same compound, the NOAEL in series [2] (supplemented rations, or more, read-out: well tolerated level in rations) is at least 300 mg/kg. Also, in series [2] (primates, at least two years), the “toxicity at high (greater than 1 gm/kg body wt.) blood levels” value is “lack evidence of methylsulfonylmethane toxicity”. In addition, the “duration of physical fatigue syndrome” value in series [3] is 2 to 3 days. For the same compound, in series [4] (setting [6]), the duration of relief fell in the range of 7 to 21 days and the “time to significant subjective relief from symptoms” value was 2 to 4 h. Also, in series [4] (i.v.), the “time to relief from pain” value is “within hours and often within minutes”. Further, in series [4] (i.v., large doses), the “relief in flare-up of rheumatoid arthritis” value is given as “prompt relief”. Besides, in series [4] (one i.v., then oral), the “duration of remission maintained with oral ingestion after one i.v. administration” value was “weeks or months”. In addition, in the series with Giardia lamblia, the “concentration promptly killing the organism” value is reported as “above 40 mg/ml”, the “concentration with no significant inhibition” value was at most 1 mg/mL and the strongly inhibitory concentration is 20 mg/mL. For the same compound, the blood level result in series [5] (250 to 500 mg daily oral) is reported as “above 1 ppm”. Besides, in series [5] (setting [7]), the illness during testing entry is listed as “None of the 14 became ill”; the reported well-being entry is “feeling better and stronger with increased endurance”. Also, in the series with lymphomas (compared with control), the development of lymphomas result is given as “significant delay” and the tumor incidence entry is “decreased”. Further, in the series with lymphomas (only grossly examined), the joint involvement result was “marked reduction”. Moreover, the “titer of primary IgM and secondary IgG” value in the series on lymphomas was “increased titer”. Also, in the series on arthritic patients, the RH titer is at most 300.
